Experimental data published in patent US20220168314A1, “MEDICAMENT FOR PROPHYLAXIS OR TREATMENT OF PULMONARY FIBROSIS” (MITSUBISHI TANABE PHARMA CORPORATION, priority 2019, published 2022).

Tests used:
[1] = test system: bleomycin intra airway administration induced mouse pulmonary fibrosis model; test: Lung functions in bleomycin intra airway administration induced mouse pulmonary fibrosis model (Example 1); assay type: in vivo; settings: Day 21; oral gavage Day 7-21; compound (I) 10 mg/kg once a day, eplerenone 50 mg/kg twice a day; vs bleomycin control group
Experimental: (§1) C57/BL6NTAC mice (male; body weight at start of a test: 25 g) (manufactured by The Jackson Laboratory) were grouped into the following 4 groups (12 mice in each group):
(§2) Group 1: normal group Group 2: no drug administration group (control group) Group 3: drug (the compound (I)) administration group Group 4: drug (eplerenone; positive control) administration group
(§3) On a day (Day 0) when the test was started, bleomycin (3.25 U/kg) was administered dropwise through airways to the mice of Groups 2-4 as test groups. Instead of bleomycin, saline was administered dropwise through airways to the mice of Group 1 as a normal group. On a seventh day (Day 7) after the start of the test, with a dosing schedule of twice a day in the morning and afternoon, oral gavage administration (twice in the morning and afternoon) of a vehicle (0.1% HCO60+0.5% CMC) was started for the mice of Groups 1 and 2; a 2 mg/ml solution of the compound (I) was prepared and oral gavage administration (in the morning) thereof at a dose of 10 mg/kg and oral gavage administration (in the afternoon) of a vehicle (0.1% HCO60+0.5% CMC) were started for the mice of Group 3; and oral gavage administration (twice in the morning and afternoon) of eplerenone at a dose of 50 mg/kg was started for the mice of Group 4. Thereafter, until a 21st day (Day 21) after the start of the test, the administrations were continued at the same dosing schedules. After the administrations were completed (Day 21), the following evaluation items were examined.
The following evaluation items were measured using a commercially available respiratory and lung function evaluation system (measurement site: around an airway). Evaluation of 4 items including: 1) inspiratory capacity (mL); 2) compliance (mL/cmH2O); 3) elastance) (cmH2O/mL); and 4) resistance (cmH2O.s/mL)
The “inspiratory capacity” corresponds to an amount of air discharged from the lungs at a stage when slowly breathing out to an end of a breath has completed, and is an indicator of a volume of the lungs. As pulmonary fibrosis progresses and the lung hardens, the volume of the lungs shrinks, and the inspiratory capacity decreases.
The “compliance” indicates a change in a lung capacity due to a certain change in pressure. […] As pulmonary fibrosis progresses and the lungs harden, the volume of the lungs shrinks, and the compliance decreases.
The “elastance” is a value represented by a reciprocal of the compliance, and is an indicator representing the difficulty for the lungs to stretch. As pulmonary fibrosis progresses and the lungs harden, the elastance increases.
The “resistance” means an airway resistance. The resistance is a resistance received by an air current in respiration, and a larger resistance means that it is harder for air to flow through the airway.

[2] = test system: bleomycin intra airway administration induced mouse pulmonary fibrosis model; test: Lung pathological tissue (picrosirius red staining, hydroxyproline content), Example 1; assay type: in vivo; settings: Day 21, compound (I) 10 mg/kg once a day, eplerenone 50 mg/kg twice a day; for positive rate (PSR Positive %) in picrosirius red staining: left lung lobes; for hydroxyproline content (μg): lower lung lobes and middle lung lobe
Experimental: as §1, §2, §3
Pulmonary fibrosis is caused by that activated fibroblasts are accumulated at a fibrosis site and a large amount of type I collagen is produced. Therefore, based on a degree of collagen accumulation in a lung tissue, a degree of pulmonary fibrosis can be evaluated. Type I collagen and type III collagen in a tissue are stained by picrosirius red staining. Therefore, a situation of collagen accumulation can be image-diagnosed, and quantitative evaluation can also be performed by calculating a staining positive rate.
Specifically, the above staining was performed on a tissue section of the lungs, and an area of a stained site (fibrosis site) was measured and evaluated.
Hydroxyproline is a major component of collagen and is substantially absent in other proteins. Therefore, by measuring a content of hydroxyproline in a tissue, an amount of collagen can be evaluated.

[3] = test system: gene expression associated with pulmonary fibrosis; test: Gene expression fluctuation associated with pulmonary fibrosis (mRNA, real time PCR, upper lung lobes), Example 1; assay type: in vivo, mouse; settings: Day 21, compound (I) 10 mg/kg once a day, eplerenone 50 mg/kg twice a day
Experimental: as §1, §2, §3
(iii) Evaluation of Gene Expression Fluctuation Associated with Pulmonary Fibrosis (Quantification of mRNA; Fold Increase) (Upper Lung Lobes)
According to a conventional method, mRNA was extracted from a homogenized upper lung lobe, and an extremely small amount of the mRNA was quantified using a real time PCR system.

[4] = Concentration of the compound (I) in blood plasma, Example 1; assay type: in vivo, mouse; settings: 10 mg/kg oral
Experimental: as §3, with “After the administrations were completed (Day 21), the following evaluation items were examined.” left out
At 2 hours (before the above evaluations) and at 18 hours from the final administration of the compound (I) (Day 21), a small amount of blood was collected from a tail vein under anesthesia, and plasma was separated with an ice-cooled centrifuge, and a concentration (nM) of the compound (I) in the plasma was measured using a conventional method.

[5] = test system: bleomycin subcutaneous continuous infusion induced mouse pulmonary fibrosis model; test: Lung functions in bleomycin subcutaneous continuous infusion induced mouse pulmonary fibrosis model (Example 2); assay type: in vivo
Experimental: (§4) Body weights of the mice of the test group were measured daily, and, on the seventh day (Day 7) after the start of the test, the mice of the test group were randomly grouped as follows using an amount of decrease in body weight as an indicator.
(§5) Group 2: no drug administration group (control group) (12 mice) Group 3: drug (the compound (I), 3 mg/kg) administration group (12 mice) Group 4: drug (the compound (I), 10 mg/kg) administration group (12 mice) Group 5: drug (the compound (I), 30 mg/kg) administration group (12 mice)
(§6) From an eighth day (Day 8) after the start of the test, oral gavage administration of a vehicle (0.1 ml per 10 g body weight) to the mice of Group 1 as the normal group and the mice of Group 2 as the no drug administration group was started, and, on the other hand, oral gavage administration of the compound (I) of a predetermined dosage to the mice of the drug administration groups of Groups 3-5 was started (for all groups, once a day in the morning). Thereafter, until a 21st day (Day 21) after the start of the test, the administrations were continued. After the administrations were completed, the following items were evaluated.
Evaluation of 4 items including: 1) inspiratory capacity (mL); 2) compliance (mL/cmH2O); 3) elastance) (cmH2O/mL); and 4) resistance (cmH2O.s/mL)

[6] = test system: bleomycin subcutaneous continuous infusion induced mouse pulmonary fibrosis model; test: Lung pathological tissue (picrosirius red staining, hydroxyproline content), Example 2; assay type: in vivo; settings: for hydroxyproline content (μg): right lung lobes
Experimental: as §4, §5, §6
i) Evaluation by Picrosirius Red Staining (Left Lung Lobes)
ii) Evaluation of Hydroxyproline Content (μg) (Right Lung Lobes)

[7] = Concentration of the compound (I) in blood plasma, Example 2; assay type: in vivo, mouse
Experimental: as §6
Evaluation of a concentration (nM) of the compound (I) in a blood plasma at 2 hours (before the above evaluations) and at 24 hours after the final administration (Day 21) (similar to Example 1, blood samples obtained by tail vain blood sampling were evaluated.)

CYP3A4 = CYP3A4 (Homo sapiens, UniProt P08684); settings: background statement; cited from earlier work
Chain of CYP3A4 (P08684 whole entry): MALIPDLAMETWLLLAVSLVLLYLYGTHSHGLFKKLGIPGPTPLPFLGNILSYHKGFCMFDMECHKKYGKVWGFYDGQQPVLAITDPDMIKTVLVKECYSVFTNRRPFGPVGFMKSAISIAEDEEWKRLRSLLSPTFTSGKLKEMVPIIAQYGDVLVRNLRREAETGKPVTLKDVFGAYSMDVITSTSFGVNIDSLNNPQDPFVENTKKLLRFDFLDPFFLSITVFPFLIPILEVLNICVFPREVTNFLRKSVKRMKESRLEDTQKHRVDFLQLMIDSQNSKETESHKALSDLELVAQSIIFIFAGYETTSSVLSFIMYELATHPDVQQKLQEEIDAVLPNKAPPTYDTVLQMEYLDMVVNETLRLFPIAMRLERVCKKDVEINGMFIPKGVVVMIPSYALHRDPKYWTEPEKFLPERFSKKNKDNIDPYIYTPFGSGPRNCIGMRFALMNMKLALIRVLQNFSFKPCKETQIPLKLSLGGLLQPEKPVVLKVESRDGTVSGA

[8] = test system: bleomycin-induced pulmonary fibrosis mice; settings: literature reports; cited from earlier work
[9] = 30 mg/kg oral once a day, Day 8-21 (Group 5)
[10] = 3, 10 and 30 mg/kg oral once a day, Day 8-21 (Groups 3-5), dose-dependent

Row | Structure (SMILES) | compliance (mL/cmH2O) [1] | elastance (cmH2O/mL) [1] | inspiratory capacity (mL) [1] | resistance (cmH2O.s/mL) [1] | positive rate (PSR Positive %) in picrosirius red staining [2] | hydroxyproline content (μg) [2] | CTGF gene expression [3] | Ccl2 gene expression [3] | PAI-1 gene expression [3] | TGFβ gene expression [3] | fibronectin gene expression [3] | type I collagen gene expression [3] | type III collagen gene expression [3] | type IV collagen gene expression [3] | vimentin gene expression [3] | αSMA gene expression [3] | further results
1 | CC1(C)Oc2cc(NS(C)(=O)=O)ccc2N(c2ccc(F)cc2)C1=O [compound (I)] | significantly improving | significantly improving | significantly improved to an extent exceeding the effect of eplerenone | very significantly improved to a level of the normal group exceeding the effect of eplerenone | significantly improving | significantly improved to an extent exceeding the effect of eplerenone | significantly reduced | significantly reduced | significantly reduced | tendency to decrease | significantly reduced | significantly reduced | significantly reduced | significantly reduced | significantly reduced | significantly reduced | concentration of the compound (I) in a blood plasma ([4]; 2 hours after the final administration (Day 21)): sufficient concentration; concentration of the compound (I) in a blood plasma ([4]; 18 hours after the final administration (Day 21)): sufficient concentration; inspiratory capacity (mL) ([5]; 10 mg/kg oral once a day, Day 8-21 (Group 4)): significantly improved; inspiratory capacity (mL) [5, 9]: significantly improved; resistance (cmH2O.s/mL) [5, 9]: significantly improved; compliance (mL/cmH2O) [5, 10]: significantly improved; elastance (cmH2O/mL) [5, 10]: significantly improved; positive rate in picrosirius red staining ([6]; left lung lobes, all the doses 3, 10, 30 mg/kg oral once a day (Groups 3-5)): significantly decreased; hydroxyproline content (μg) ([6]; 3 mg/kg oral once a day, Day 8-21 (Group 3)): significantly decreased; hydroxyproline content (μg) [6, 9]: significantly decreased; concentration of the compound (I) in a blood plasma ([7]; 2 hours after the final administration (Day 21), 3, 10, 30 mg/kg oral): dose-dependent concentration; concentration of the compound (I) in a blood plasma ([7]; 24 hours after the final administration (Day 21), 30 mg/kg oral): sufficient concentration
2 | COC(=O)[C@@H]1CC2=CC(=O)CC[C@]2(C)[C@@]23O[C@@H]2C[C@@]2(C)[C@@H](CC[C@@]24CCC(=O)O4)[C@H]13 [eplerenone, reference compound] | significantly improved | significantly improved | significantly improved | significantly improved | significantly improved | significantly improved | significantly reduced | significantly reduced | significantly reduced | tendency to increase | significantly reduced | could not reduce | could not reduce | could not reduce | significantly reduced | could not reduce | metabolizing enzyme (CYP3A4): mainly metabolized by CYP3A4
3 | CC(=O)S[C@@H]1CC2=CC(=O)CC[C@]2(C)[C@H]2CC[C@@]3(C)[C@@H](CC[C@@]34CCC(=O)O4)[C@H]12 [spironolactone] | – | – | – | – | – | – | – | – | – | – | – | – | – | – | – | – | accumulation of hydroxyproline (indicator of tissue fibrosis) [8]: improves
